Key:
RON = RON (Homo sapiens, UniProt Q04912); test: Inhibitory activity against RON, TR-FRET kinase assay; assay type: biochemical; conditions: RON enzyme
Procedure: In order to measure the inhibitory activity of each of the compounds of Examples against RON, the IC50 of each of the compounds was measured using a Time-Resolved Fluorescence Energy Transfer Chemistry (TR-FRET).
(§1) Specifically, the compound was prepared to a concentration of 1 mM with 100% DMSO and was diluted 10 times in a stepwise manner through 3-fold dilution. 2 ul of the compound diluted in a stepwise manner was added to a 96-well-plate containing 48 ul of a 1× kinase reaction buffer (50 mM HEPES (pH 7.4), 0.01% Tween-20, 5 mM DTT, 0.5 mM Na3VO4, 2 mM EGTA, 10 mM MgCl2).
The RON protein was diluted to a concentration of 49.3 nM with an RON storage buffer (50 mM Tris-HCl (pH 7.5), 150 mM NaCl, 0.5 mM EDTA, 0.02% Triton X-100), and then diluted again to a concentration of 0.4 nM with a 1× kinase reaction buffer. As a substrate cocktail, a RON-specific substrate mixture (40 uM ULight-labeled Poly GT, 100 nM ATP) at a concentration 2 times the final reaction concentration.
Thereafter, a 384-well-plate was prepared, and 2.5 ul of each of the diluted compounds of Examples was added to a corresponding well of experimental group wells, and 2.5 ul of a 4% DMSO solution was dispensed into high control wells and low control wells.
(§2) Thereafter, 2.5 μL of 0.4 nM RON was dispensed into the high control wells and the experimental group wells, and 2.5 μL of a 1× kinase reaction buffer was added to the low control wells, and the RON and the reaction buffer were centrifuged at room temperature for 40 seconds at 1000 RPM, and then incubated at room temperature for 20 to 30 minutes. Then, 5 μL of a substrate cocktail (2×) was dispensed into all wells, centrifuged at room temperature for 40 seconds at 1000 RPM, and then incubated at room temperature for 60 minutes. Thereafter, 5 μL of 30 mM EDTA was added to all wells to terminate the reaction, and then incubated again at room temperature for 5 minutes. Thereafter, 5 μL of a 4× phosphotyrosine antibody (Perkin Elmer) containing europium was added to all wells, and then incubated at room temperature for 60 minutes. After the incubation, the 384-well-plate was read with a Vison plate reader. At this time, the excitation wavelength was 340 nm, and the emission wavelength was 620 nm and 665 nm. The IC50 value of the compound of each Example was derived using the GraphPd Prism7 program.

cMET = cMET (Homo sapiens, UniProt P08581); test: Inhibitory activity against MET (cMET), TR-FRET kinase assay; assay type: biochemical; conditions: cMET enzyme
Chain of cMET (P08581 25-1390): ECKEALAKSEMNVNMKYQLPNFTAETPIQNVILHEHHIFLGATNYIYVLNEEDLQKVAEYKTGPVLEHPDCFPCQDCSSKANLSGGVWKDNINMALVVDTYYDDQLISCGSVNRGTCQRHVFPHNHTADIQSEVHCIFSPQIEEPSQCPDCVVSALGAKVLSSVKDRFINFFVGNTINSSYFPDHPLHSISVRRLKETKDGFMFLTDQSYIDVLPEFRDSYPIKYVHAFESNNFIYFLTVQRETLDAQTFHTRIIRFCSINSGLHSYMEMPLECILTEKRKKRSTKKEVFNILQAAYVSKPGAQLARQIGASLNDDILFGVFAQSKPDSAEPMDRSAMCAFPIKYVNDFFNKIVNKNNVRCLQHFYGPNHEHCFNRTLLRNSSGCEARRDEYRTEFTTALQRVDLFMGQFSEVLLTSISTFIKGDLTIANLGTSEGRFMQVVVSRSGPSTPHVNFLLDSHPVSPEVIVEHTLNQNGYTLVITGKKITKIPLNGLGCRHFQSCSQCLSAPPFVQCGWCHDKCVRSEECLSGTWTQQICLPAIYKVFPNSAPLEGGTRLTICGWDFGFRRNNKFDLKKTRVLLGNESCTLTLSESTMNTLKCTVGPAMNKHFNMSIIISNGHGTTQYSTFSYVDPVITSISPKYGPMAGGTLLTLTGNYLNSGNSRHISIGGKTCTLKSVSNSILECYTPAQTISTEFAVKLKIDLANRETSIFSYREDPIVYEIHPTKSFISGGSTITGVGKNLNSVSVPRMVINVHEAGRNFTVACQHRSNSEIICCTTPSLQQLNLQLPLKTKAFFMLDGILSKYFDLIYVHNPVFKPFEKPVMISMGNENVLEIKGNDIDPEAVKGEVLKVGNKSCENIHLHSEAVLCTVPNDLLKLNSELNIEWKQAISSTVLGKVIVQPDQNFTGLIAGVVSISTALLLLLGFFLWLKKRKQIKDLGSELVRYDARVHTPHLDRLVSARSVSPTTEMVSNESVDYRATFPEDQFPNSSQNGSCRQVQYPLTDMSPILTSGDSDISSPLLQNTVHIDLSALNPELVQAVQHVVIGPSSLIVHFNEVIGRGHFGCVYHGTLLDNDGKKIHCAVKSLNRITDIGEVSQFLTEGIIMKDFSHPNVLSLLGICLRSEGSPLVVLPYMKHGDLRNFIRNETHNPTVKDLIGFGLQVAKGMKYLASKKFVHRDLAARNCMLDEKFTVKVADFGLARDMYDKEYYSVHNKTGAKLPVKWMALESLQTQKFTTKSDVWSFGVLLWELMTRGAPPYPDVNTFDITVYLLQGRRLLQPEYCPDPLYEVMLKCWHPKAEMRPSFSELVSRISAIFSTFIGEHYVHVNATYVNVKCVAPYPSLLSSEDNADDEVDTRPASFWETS
Procedure: In addition, in order to measure the enzyme activity inhibition for cMET, the evaluation was performed in the same manner as the enzyme activity inhibition measurement experiment for the RON.
as §1, with “7.4), 0.05% BSA, 0.005%” for “7.4), 0.01%”, “Tween-20, 1” for “Tween-20, 5”, “mM MnCl2, 20” for “mM Na3VO4, 2 mM EGTA, 10”
The cMET protein was diluted to a concentration of 263 nM with a cMET storage buffer (50 mM Tris-HCl (pH 7.5), 150 mM NaCl, 0.05% Brij35, 1 mM DTT, 10% Glycerol), and then diluted again to a concentration of 2 nM with a 1× kinase reaction buffer. As a substrate cocktail, a MET-specific substrate mixture (5 uM TK peptide, […]) at a concentration 2 times the final reaction concentration.
Thereafter, a 384-well-plate was prepared, and 2.5 μl of each of the diluted compounds of Examples was added to a corresponding well of experimental group wells, and 2.5 μl of a 4% DMSO solution was dispensed into high control wells and low control wells.
as §2, with “of 2” for “of 0.4”, “nM cMET” for “nM RON”, “of 90” for “of 30”

Chain of RON (Q04912 25-1400, species assumed): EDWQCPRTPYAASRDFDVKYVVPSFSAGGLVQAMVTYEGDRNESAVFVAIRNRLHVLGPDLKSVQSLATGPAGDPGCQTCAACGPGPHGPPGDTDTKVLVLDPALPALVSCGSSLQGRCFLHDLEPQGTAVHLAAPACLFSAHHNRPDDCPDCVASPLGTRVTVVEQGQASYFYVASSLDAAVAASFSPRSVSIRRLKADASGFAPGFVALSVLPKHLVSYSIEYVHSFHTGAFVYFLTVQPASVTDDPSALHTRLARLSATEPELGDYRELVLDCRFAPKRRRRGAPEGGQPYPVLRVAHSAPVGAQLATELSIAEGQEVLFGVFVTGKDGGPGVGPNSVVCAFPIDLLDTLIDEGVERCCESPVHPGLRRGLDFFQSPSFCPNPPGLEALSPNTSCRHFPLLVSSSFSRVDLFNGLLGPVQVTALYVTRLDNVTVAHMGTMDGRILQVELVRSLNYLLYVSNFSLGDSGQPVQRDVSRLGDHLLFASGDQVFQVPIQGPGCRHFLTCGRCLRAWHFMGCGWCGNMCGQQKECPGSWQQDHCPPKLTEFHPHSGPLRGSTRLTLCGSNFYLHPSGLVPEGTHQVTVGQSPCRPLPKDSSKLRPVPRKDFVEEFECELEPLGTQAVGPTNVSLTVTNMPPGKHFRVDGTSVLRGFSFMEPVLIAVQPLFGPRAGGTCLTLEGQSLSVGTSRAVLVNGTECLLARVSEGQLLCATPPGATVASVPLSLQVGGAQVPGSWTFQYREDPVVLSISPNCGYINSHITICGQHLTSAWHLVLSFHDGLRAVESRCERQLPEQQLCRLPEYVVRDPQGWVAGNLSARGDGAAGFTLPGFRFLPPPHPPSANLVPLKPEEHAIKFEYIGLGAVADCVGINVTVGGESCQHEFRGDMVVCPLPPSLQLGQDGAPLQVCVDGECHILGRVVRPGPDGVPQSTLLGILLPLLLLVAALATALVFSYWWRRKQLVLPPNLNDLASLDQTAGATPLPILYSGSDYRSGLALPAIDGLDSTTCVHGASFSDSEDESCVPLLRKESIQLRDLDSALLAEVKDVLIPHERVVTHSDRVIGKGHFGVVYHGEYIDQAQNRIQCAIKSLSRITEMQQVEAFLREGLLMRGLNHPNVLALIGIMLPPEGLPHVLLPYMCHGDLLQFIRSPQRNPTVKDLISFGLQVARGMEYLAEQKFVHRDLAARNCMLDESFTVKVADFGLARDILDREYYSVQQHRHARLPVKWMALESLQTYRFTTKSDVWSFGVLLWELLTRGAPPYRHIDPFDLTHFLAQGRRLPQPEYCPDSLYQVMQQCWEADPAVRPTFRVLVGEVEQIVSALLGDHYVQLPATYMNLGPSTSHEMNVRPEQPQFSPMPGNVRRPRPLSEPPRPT

What does the source list for `CC(C)n1c(=O)[nH]c2nccc(Oc3ccc(NC(=O)c4cnn(-c5ccccc5)c4-c4ccccc4)cc3F)c21` [Example 19, N-(3-fluoro-4-((1-isopropyl-2-oxo-2,3-dihydro-1H-imidazo[4,5-b]pyridine-7-yl)oxy)phenyl)-1,5-diphenyl-1H-pyrazole-4-carboxamide]?
IC50 (RON): 50 to 500 nM; IC50 (cMET): 50 to 500 nM

For `CC(C)n1c(=O)[nH]c2nccc(Oc3ccc(NC(=O)c4cnn(C5CCCOC5)c4C(F)(F)F)cc3F)c21` (centres unmarked) [Example 20, N-(3-fluoro-4-((1-isopropyl-2-oxo-2,3-dihydro-1H-imidazo[4,5-b]pyridine-7-yl)oxy)phenyl)-1-(tetrahydro-2H-pyran-3-yl)-5-(trifluoromethyl)-1H-pyrazole-4-carboxamide], which IC50 (RON) is on record?
The IC50 was less than 50 nM.

What about the IC50 (cMET) of the same compound?
Its IC50 is 500 to 5000 nM.

How did the IC50 (RON) turn out when `O=C(Nc1ccc(Oc2ccnc3[nH]c(=O)n(C4CCCC4)c23)c(F)c1)c1ncn(-c2ccccc2)c1C(F)(F)F` [Example 21, N-(4-((1-cyclopentyl-2-oxo-2,3-dihydro-1H-imidazo[4,5-b]pyridine-7-yl)oxy)-3-fluorophenyl)-1-phenyl-5-(trifluoromethyl)-1H-imidazole-4-carboxamide] was run?
Its IC50 is less than 50 nM.

And the IC50 (cMET)?
Its IC50 is 500 to 5000 nM.

For `O=C(Nc1ccc(Oc2ccnc3[nH]c(=O)n(C4CCCC4)c23)c(F)c1)c1cnn(-c2ccccc2)c1C(F)(F)F` [Example 22, N-(4-((1-cyclopentyl-2-oxo-2,3-dihydro-1H-imidazo[4,5-b]pyridine-7-yl)oxy)-3-fluorophenyl)-1-phenyl-5-(trifluoromethyl)-1H-pyrazole-4-carboxamide], which IC50 (RON) is on record?
Its IC50 is less than 50 nM.

What about the IC50 (cMET) of the same compound?
Its IC50 is 500 to 5000 nM.

Which results are given for `CCc1c(C(=O)Nc2ccc(Oc3ccnc4[nH]c(=O)n(C5CCCC5)c34)c(F)c2)cnn1-c1ccccc1` [Example 23, N-(4-((1-cyclopentyl-2-oxo-2,3-dihydro-1H-imidazo[4,5-b]pyridine-7-yl)oxy)-3-fluorophenyl)-5-ethyl-1-phenyl-1H-pyrazole-4-carboxamide]?
IC50 (RON): 50 to 500 nM; IC50 (cMET): 500 to 5000 nM

Which IC50 (RON) does the source give for `CC(C)n1c(=O)[nH]c2nccc(Oc3ccc(NC(=O)c4ccccc4C(F)(F)F)cc3F)c21` [Example 24, N-(3-fluoro-4-((1-isopropyl-2-oxo-2,3-dihydro-1H-imidazo[4,5-b]pyridine-7-yl)oxy)phenyl)-2-(trifluoromethyl)benzamide] here?
Its IC50 is 500 to 5000 nM.

And the IC50 (cMET)?
Its IC50 is 500 to 5000 nM.

Which results are given for `CC(C)n1c(=O)[nH]c2nccc(Oc3ccc(NC(=O)c4ccc(Br)cc4C(F)(F)F)cc3F)c21` [Example 25, 4-bromo-N-(3-fluoro-4-((1-isopropyl-2-oxo-2,3-dihydro-1H-imidazo[4,5-b]pyridine-7-yl)oxy)phenyl)-2-(trifluoromethyl)benzamide]?
IC50 (RON): 50 to 500 nM; IC50 (cMET): > 5000 nM

How did the IC50 (RON) turn out when `CC(C)n1c(=O)[nH]c2nccc(Oc3ccc(NC(=O)c4cnn(-c5cccc6ccccc56)c4C(F)(F)F)cc3F)c21` [Example 26, N-(3-fluoro-4-((1-isopropyl-2-oxo-2,3-dihydro-1H-imidazo[4,5-b]pyridine-7-yl)oxy)phenyl)-1-(naphthalene-1-yl)-5-(trifluoromethyl)-1H-pyrazole-4-carboxamide] was run?
The IC50 was 50 to 500 nM.

What about the IC50 (cMET) of the same compound?
The IC50 was 500 to 5000 nM.

Which IC50 (RON) does the source give for `CC(C)n1c(=O)[nH]c2nccc(Oc3ccc(NC(=O)c4cccc(Br)c4C(F)(F)F)cc3F)c21` [Example 27, 3-bromo-N-(3-fluoro-4-((1-isopropyl-2-oxo-2,3-dihydro-1H-imidazo[4,5-b]pyridine-7-yl)oxy)phenyl)-2-(trifluoromethyl)benzamide] here?
The IC50 was 500 to 5000 nM.

What about the IC50 (cMET) of the same compound?
The IC50 was greater than 5000 nM.

Which results are given for `CC(C)n1c(=O)[nH]c2nccc(Oc3ccc(NC(=O)c4cnn(C5CCCCC5)c4C(F)(F)F)cc3F)c21` [Example 28, 1-cyclohexyl-N-(3-fluoro-4-((1-isopropyl-2-oxo-2,3-dihydro-1H-imidazo[4,5-b]pyridine-7-yl)oxy)phenyl)-5-(trifluoromethyl)-1H-pyrazole-4-carboxamide]?
IC50 (RON): < 50 nM; IC50 (cMET): 500 to 5000 nM

From patent US20240300944A1, “NOVEL UREA DERIVATIVE COMPOUND AS RON INHIBITOR” (LG CHEM, LTD., priority 2021, published 2024)
